# US11660286B2, “Methods and compositions comprising a nitrite-reductase promoter for treatment of medical disorders and preservation of blood products” (EpicentRx, Inc., priority 2011, dated 2023)
# Where two headings read alike, the source gives them in different places.
# Key:
# hemorrhagic shock [1] = experiment: Resuscitation from hemorrhagic shock, hamster window chamber model: microvascular measurements; format: in vivo, Golden Syrian Hamsters; details: for functional capillary density (FCD), baseline average and standard deviation: before hemorrhage (FIG. 11)
# Procedure: (§1) Experiments were performed in 55-65 g male Golden Syrian Hamsters (Charles River Laboratories, Boston, Mass.) fitted with a dorsal skinfold window chamber. Animal handling and care followed the NIH Guide for the Care and Use of Laboratory Animals. The hamster window chamber model is widely used for microvascular studies in the unanesthetized state. The complete surgical technique is described in detail elsewhere, such as in Colantuoni et al. in Am J Physiol 1984; 246:H508-17. Three to four days after the initial surgery, the microvasculature was examined and only animals passing an established systemic and microcirculatory inclusion criteria, as previously described (e.g., in Cabrales P. Low dose nitrite enhances perfusion after fluid resuscitation from hemorrhagic shock. Resuscitation 2009; 80: 1431-6), were entered into the study.
# (§2) Acute hemorrhage was induced by withdrawing 50% of estimated total blood volume (BV) via the carotid artery catheter within 5 min. Total BV was estimated as 7% of body weight. One hour after hemorrhage induction, animals received 25% of BY of resuscitation (200 μl/min) via the jugular vein catheter, implemented with the volume resuscitation strategy defined by the group name, according to the scheme described before.
# (§3) Fresh blood was collected from a donor, adult male Golden Syrian Hamsters (60-80 g). Briefly, hamster donors were anaesthetized, left carotid artery catheter was implanted, and blood was allowed to flow into heparinized tubes (sodium heparin 15 IU/mL). RBCs and plasma were separated by centrifugation (2700 rpm, 7 min). Buffy coat was discarded. RRx-001 treated cells were prepared by incubation of 1 mL of packed cells with 2 mg of RRx-001 for 30 minutes at 4° C., cells were rinsed 2× by centrifugation at 3,000 rpm with phosphate buffer saline (PBS) solution with 0.5% albumin (pre-filtered 0.22 μm, pH 7.4). After the final wash, red blood cells (RBCs) were adjusted to a 30% Het with fresh plasma.
# (§4) For the groups that received “nitrite,” 10 μM (in saline 100 μL) of sodium nitrite in saline was infused via the carotid artery catheter 10 minutes after resuscitation for the groups that received nitrite. An equal volume of saline was given to the other groups. To address effects of instrumentation and observation, an additional Sham group was included.
# (§5) Conscious animal was placed in a restraining tube with a longitudinal slit from which the window chamber protruded, then fixed to the microscopic stage for transillumination with the intravital microscope (BX51WI, Olympus, New Hyde Park, N.Y.). Animals were given 20 min to adjust to the tube environment before any measurements were made. The tissue image was projected onto a charge-coupled device camera (4815, COHU, San Diego, Calif.) connected to a videocassette recorder and viewed on a monitor. Measurements were carried out using a 40× (LUMPFL-WIR, numerical aperture 0.8, Olympus) water immersion objective. Systemic (MAP, HR, Het, Hb, PaO2, PaCO2, pH, lactate, plasma nitrite, and metHb) and microvascular (artciorlar and venular diameters, blood flow, and FCD) parameters were analyzed, as previously described (e.g., in P. Nachuraju et al. in Resuscitation 2011; 82:607-613; Cabrales P. in Resuscitation 2009; 80:1431-6; Cabrales et al. in Shock 2007; 27:380-9; and Cabrales et al. in Am J Physiol 2004; 287:H363-73) before hemorrhage (baseline), after hemorrhage (shock), and up to 90 min after volume replacement (resuscitation). Tissue viability was measured at 8 hours following hemorrhage as described previously (e.g., in Yang et al. In Invest Ophthalmol Vis Sci 2003; 44:1993-1997; and Cabrales et al. in Antioxid Redox Signal 2007; 9:375-84).
# (§6) Table and figure results are presented as mean±SD.
# hemorrhagic shock [2] = experiment: Resuscitation from hemorrhagic shock, hamster window chamber model: systemic parameters; details: for BP / HR / Hb / Hct / Lactate / pCO2 / pO2 / pH: mean ± SD; for pH: arterial
# Procedure: as §1, §2, §3, §4, §5, §6
# hemorrhagic shock [3] = format: in vivo, Golden Syrian Hamsters
# Procedure: as §1
# Acute hemorrhage was induced by withdrawing 50% of estimated total blood volume (BV) via the carotid artery catheter within 5 min. Total BV was estimated as 7% of body weight. […]
# as §5, with “Animals were given 20 min to adjust to the tube environment before any measurements were made. The tissue image was projected onto a charge-coupled device camera (4815, COHU, San Diego, Calif.) connected to a videocassette recorder and viewed on a monitor. Measurements were carried out using a 40× (LUMPFL-WIR, numerical aperture 0.8, Olympus) water immersion objective.” left out, “9:375-84). […]” for “9:375-84).”
# hemorrhagic shock [4] = details: 50 μM nitrite, previous study, cited from earlier work
# blood sample = experiment: Nitric oxide production in a sample of blood with sodium nitrite (Tonometer, chemiluminescent NO analysis); format: cell-based; details: anaerobic conditions (N2 atmosphere), 30 min, 37° C., compared to without ABDNAZ or with ABDNAZ under air
# Procedure: The ability of ABDNAZ to increase nitric oxide production in a sample of blood under aerobic conditions and anaerobic conditions was evaluated.
# A 0.5 mL aliquot of blood was placed in a tonometer. ABDNAZ (5 μL of a 300 mM solution of ABDNAZ in dimethylsulfoxide) was optionally added to the blood sample in the Tonometer. Sodium nitrite was added to the blood sample to achieve a sodium nitrite concentration of 167 mM. Gas (either air or N2) was passed through the Tonometer at a flow rate of 150 mL/min. Gas exiting the Tonometer was collected in three-minute intervals for a period of thirty minutes. The amount of nitric oxide in each of the collected fractions was measured by a chemiluminescent reaction with ozone in a Sievers Nitric Oxide Analyzer. The amount of nitric oxide produced from the blood sample was expressed per mole of hemoglobin present in the blood sample. All experiments were performed at 37° C.
# The amount of hemoglobin (Hb) and hematocrit (Het) in the blood sample was determined using an Advia analyzer.
# [5] = Shock (50 min), after hemorrhage, before resuscitation
# [6] = Shock (50 min), before resuscitation
# [7] = 60 minutes following resuscitation
# [8] = 90 minutes following resuscitation
# [9] = 8 hours following resuscitation, cells in 40 fields
compound,measurement,setting,value
"O=NO [Nitrite, sodium nitrite]","functional capillary density (FCD), baseline average and standard deviation",hemorrhagic shock [1],107±12
same,functional capillary density (FCD) compared to the blood group,"hemorrhagic shock [1]; hamster, in vivo",not significantly different
same,BP,hemorrhagic shock [2]; Baseline (before hemorrhage),104.3 ± 9.0 mmHg
same,HR,hemorrhagic shock [2]; Baseline (before hemorrhage),428 ± 13 bpm
same,Hb,hemorrhagic shock [2]; Baseline (before hemorrhage),15.2 ± 0.3 g/dL
same,Hct,hemorrhagic shock [2]; Baseline (before hemorrhage),49.8 ± 0.8%
same,Lactate,hemorrhagic shock [2]; Baseline (before hemorrhage),1.30 ± 0.13 mmol/L
same,pCO2,hemorrhagic shock [2]; Baseline (before hemorrhage),52.9 ± 1.2 mmHg
same,pO2,hemorrhagic shock [2]; Baseline (before hemorrhage),60.5 ± 1.0 mmHg
same,BP,hemorrhagic shock [2]; Resuscitation (30 min),91.3 ± 6.9 mmHg
same,HR,hemorrhagic shock [2]; Resuscitation (30 min),438 ± 21 bpm
same,BP,hemorrhagic shock [2]; Resuscitation (60 min),96.3 ± 7.5 mmHg
same,HR,hemorrhagic shock [2]; Resuscitation (60 min),447 ± 21 bpm
same,Hb,hemorrhagic shock [2]; Resuscitation (60 min),9.5 ± 0.2 g/dL
same,Hct,hemorrhagic shock [2]; Resuscitation (60 min),31.0 ± 0.7%
same,Lactate,hemorrhagic shock [2]; Resuscitation (60 min),1.95 ± 0.11 mmol/L
same,pCO2,hemorrhagic shock [2]; Resuscitation (60 min),48.3 ± 2.2 mmHg
same,pO2,hemorrhagic shock [2]; Resuscitation (60 min),76.0 ± 2.9 mmHg
same,BP,hemorrhagic shock [2]; Resuscitation (90 min),94.7 ± 6.5 mmHg
same,HR,hemorrhagic shock [2]; Resuscitation (90 min),459 ± 14 bpm
same,Hb,hemorrhagic shock [2]; Resuscitation (90 min),9.6 ± 0.1 g/dL
same,Hct,hemorrhagic shock [2]; Resuscitation (90 min),31.5 ± 0.4%
same,Lactate,hemorrhagic shock [2]; Resuscitation (90 min),1.71 ± 0.20 mmol/L
same,pCO2,hemorrhagic shock [2]; Resuscitation (90 min),45.0 ± 2.4 mmHg
same,pO2,hemorrhagic shock [2]; Resuscitation (90 min),65.2 ± 3.0 mmHg
same,BP,hemorrhagic shock [2]; [5],46.1 ± 3.6 mmHg
same,HR,hemorrhagic shock [2]; [5],455 ± 21 bpm
same,Hb,hemorrhagic shock [2]; [5],8.9 ± 0.1 g/dL
same,Hct,hemorrhagic shock [2]; [5],29.2 ± 0.5%
same,Lactate,hemorrhagic shock [2]; [6],4.52 ± 0.58 mmol/L
same,pCO2,hemorrhagic shock [2]; [6],38.9 ± 1.3 mmHg
same,pO2,hemorrhagic shock [2]; [6],93.1 ± 2.8 mmHg
same,pH,hemorrhagic shock [2]; Baseline (before hemorrhage),7.34 ± 0.02
same,pH,hemorrhagic shock [2]; Resuscitation (60 min),7.38 ± 0.02
same,pH,hemorrhagic shock [2]; Resuscitation (90 min),7.36 ± 0.02
same,pH,hemorrhagic shock [2]; [6],7.30 ± 0.01
same,HR compared to the blood group,"hemorrhagic shock [2]; hamster, in vivo",significantly increased
same,MAP compared to the blood group,"hemorrhagic shock [2]; hamster, in vivo",significantly decreased
same,decreases in lactate levels compared to the blood group,"hemorrhagic shock [2]; hamster, in vivo",did not reach significance
same,pH compared to the blood group,"hemorrhagic shock [2]; hamster, in vivo",significantly increased
same,pO2 levels compared to the blood group,"hemorrhagic shock [2]; hamster, in vivo",significantly increased
same,number of necrotic cells compared to the blood group,"hemorrhagic shock [3]; hamster, in vivo",significantly reduced
same,% metHb,hemorrhagic shock [4]; [7],5.8±1.8%
same,Blood pressure compared to 0 μM group (control group),hemorrhagic shock [4]; [7],significantly decreased
same,% metHb,hemorrhagic shock [4]; [8],3.1±1.3%
O=C(CBr)N1CC([N+](=O)[O-])([N+](=O)[O-])C1 [RRx-001],blood flow compared to the blood group,hemorrhagic shock [1]; [7],significantly (P<0.001) increased
same,blood flow compared to the blood group,hemorrhagic shock [1]; [8],significantly (P<0.001) increased
same,functional capillary density (FCD) compared to the blood group,hemorrhagic shock [1]; 90 minutes post resuscitation,"significant (P<0.05 and P<0.01, respectively) increases"
same,"functional capillary density (FCD), baseline average and standard deviation",hemorrhagic shock [1],112±9
same,amount of nitric oxide produced by the blood sample,blood sample,significant increase
same,metHb levels,"hemorrhagic shock [2]; 60 and 90 minutes post fluid resuscitation (FIG. 9), normal about 1% of total Hb",normal
same,MAP compared to the blood group,hemorrhagic shock [2]; 30 minutes following resuscitation,only decreased at 30 minutes
same,metHb levels,"hemorrhagic shock [2]; 60 minutes following resuscitation, RRx-001 treated blood",1.4±0.1%
same,pH compared to the blood group,hemorrhagic shock [2]; 60 minutes post resuscitation,significantly increased
same,blood pressure (MAP) after resuscitation from shock,"hemorrhagic shock [2]; 60 minutes, comparator not stated",significantly decreased
same,metHb levels,"hemorrhagic shock [2]; 90 minutes following resuscitation, RRx-001 treated blood",1.2±0.1%
same,pO2 levels compared to the blood group,hemorrhagic shock [2]; 90 minutes post resuscitation,significantly increased
same,BP,hemorrhagic shock [2]; Baseline (before hemorrhage),106.3 ± 8.7 mmHg
same,HR,hemorrhagic shock [2]; Baseline (before hemorrhage),409 ± 21 bpm
same,Hb,hemorrhagic shock [2]; Baseline (before hemorrhage),15.1 ± 0.3 g/dL
same,Hct,hemorrhagic shock [2]; Baseline (before hemorrhage),49.7 ± 1.0%
same,Lactate,hemorrhagic shock [2]; Baseline (before hemorrhage),1.39 ± 0.20 mmol/L
same,pCO2,hemorrhagic shock [2]; Baseline (before hemorrhage),54.2 ± 1.8 mmHg
same,pO2,hemorrhagic shock [2]; Baseline (before hemorrhage),59.9 ± 2.5 mmHg
same,blood pressure following resuscitation,"hemorrhagic shock [2]; RRx-001 treated blood, current study",maintained blood pressure
same,BP,hemorrhagic shock [2]; Resuscitation (30 min),92.5 ± 6.7 mmHg
same,HR,hemorrhagic shock [2]; Resuscitation (30 min),436 ± 12 bpm
same,BP,hemorrhagic shock [2]; Resuscitation (60 min),98.5 ± 7.6 mmHg
same,HR,hemorrhagic shock [2]; Resuscitation (60 min),444 ± 10 bpm
same,Hb,hemorrhagic shock [2]; Resuscitation (60 min),9.5 ± 0.2 g/dL
same,Hct,hemorrhagic shock [2]; Resuscitation (60 min),31.1 ± 0.6%
same,Lactate,hemorrhagic shock [2]; Resuscitation (60 min),1.93 ± 0.23 mmol/L
same,pCO2,hemorrhagic shock [2]; Resuscitation (60 min),48.0 ± 3.1 mmHg
same,pO2,hemorrhagic shock [2]; Resuscitation (60 min),70.9 ± 3.4 mmHg
same,BP,hemorrhagic shock [2]; Resuscitation (90 min),106.3 ± 9.0 mmHg
same,HR,hemorrhagic shock [2]; Resuscitation (90 min),453 ± 17 bpm
same,Hb,hemorrhagic shock [2]; Resuscitation (90 min),9.5 ± 0.1 g/dL
same,Hct,hemorrhagic shock [2]; Resuscitation (90 min),31.2 ± 0.6%
same,Lactate,hemorrhagic shock [2]; Resuscitation (90 min),1.63 ± 0.23 mmol/L
same,pCO2,hemorrhagic shock [2]; Resuscitation (90 min),49.0 ± 2.2 mmHg
same,pO2,hemorrhagic shock [2]; Resuscitation (90 min),68.7 ± 2.9 mmHg
same,BP,hemorrhagic shock [2]; [5],46.3 ± 4.0 mmHg
same,HR,hemorrhagic shock [2]; [5],422.5 ± 25 bpm
same,Hb,hemorrhagic shock [2]; [5],8.9 ± 0.3 g/dL
same,Hct,hemorrhagic shock [2]; [5],29.0 ± 0.8%
same,Lactate,hemorrhagic shock [2]; [6],4.16 ± 0.39 mmol/L
same,pCO2,hemorrhagic shock [2]; [6],39.3 ± 1.2 mmHg
same,pO2,hemorrhagic shock [2]; [6],94.9 ± 5.1 mmHg
same,pH,hemorrhagic shock [2]; Baseline (before hemorrhage),7.32 ± 0.01
same,pH,hemorrhagic shock [2]; Resuscitation (60 min),7.39 ± 0.01
same,pH,hemorrhagic shock [2]; Resuscitation (90 min),7.36 ± 0.01
same,pH,hemorrhagic shock [2]; [6],7.28 ± 0.02
same,HR compared to the blood group,hemorrhagic shock [2]; following resuscitation,significantly increased
same,pCO2 levels compared to the blood group,hemorrhagic shock [2]; following resuscitation,not significantly different
same,decreases in lactate levels compared to the blood group,hemorrhagic shock [2]; post-resuscitation,did not reach significance
same,number of apoptotic cells compared to the blood group,hemorrhagic shock [3]; [9],significantly (P<0.01) less
same,number of necrotic cells compared to the blood group,hemorrhagic shock [3]; [9],significantly (P<0.01) less
